Measurements from US20040259806A1 (priority 2001, published 2004).

Legend:
IL-4 and IFN-γ = assay: IL-4 and INF-γ in spleen cell supernatants (Quantikine ELISA); type: in vivo, mice
Method: (§1) In RPMI-1640, spleen cells were diluted to a concentration of 10^7/ml with 10% fetal calf serum, 2 mM L-glutamine and 80 ìg/ml gentamycin. A 100 ìl cell suspension was added to each well of a 96-well culture plate and cytokine production was induced by Con A at a final concentration of 2.5 ìg/ml. A control well included RPMI-1640. For 24 hours, cells were incubated at 37° C. and humidified in 5% CO2. Following incubation, […] of supernatant was removed from each well and stored at −70° C.
IL-4 and INF-γ assays in Con A-stimulated spleen cell supernatants were also performed using Quantikine™ ELIZA kits R & D Systems, Minneapolis, Minn.) in accordance with kit instructions. Plates were coated with monoclonal antibodies to either IL-4 or IFN-γ and blocked. Standards and samples were subsequently added. The cells were incubated for 2 h and washed, following with the addition of a colorimetric substrate. After 30 minutes, the reaction was terminated and plates were read at 450 nm using a plate reader (Multiscan™ 3550, BioRad, Japan).

tuberculosis [1] = assay: SCV-07 in patients with destructive lung tuberculosis, 20 treated versus 15 control (Example 3); type: in vivo, human
Method: Patients with destructive lung tuberculosis, untreated previously or after inadequate antituberculosis therapy were treated. All patients received antituberculosis therapy consisting of intravenous isoniazid and four to five other drugs and the condition of each patient was examined daily. Major diagnostic criteria included physical examination, chest X-ray, sputum bacterioscopy and culture, broncho alveolar lavage examination. Also included were blood counts performed in all patients prior to SCV-07 therapy and then once per week. Blood biochemical tests including blood fibrinogen, β-lipoproteins, urea, creatinine, C-reactive protein levels, activity of alanine and asparagine transaminases were performed once per month and more frequently if needed. Sputum cultures were taken prior to therapy and one and three months after SCV-07 therapy, and serologic assays including indirect hemaglutination tests.
Bilateral lung injury was found in 11 patients. […] In all cases, the pathological process was destructive. […] Immature cavities were diagnosed in 3 cases. Multiple cavities, X-ray markers and exudative inflammation predominated in all patients.
Females slightly predominated the experimental group (55%). Patients ranged in age from 20 to 40 years of age. All patients had symptoms of toxemia, including 4 patients with severe symptoms.
Immunological studies included counting the percentage of peripheral blood lymphocyte subsets such as CD3+, CD4+, CD8+, CD20+, CD25+ and CD95+ using monoclonal antibodies. The CD4/CD8 index was calculated as well. Elevation of CD3+ and CD4+ cell levels were apparent in 7 out of 14 patients immediately after SCV-07 therapy.
Phytohemagglutinin (PHA) and purified protein derivate (PPD)-induced lymphocytes blasttransformation were also investigated.

tuberculosis [2] = assay: SCV-07 therapy with continued traditional antituberculosis therapy in a patient (Example 2); type: in vivo, human
From the text: A patient was admitted to the hospital with infiltrative tuberculosis, destructive phase in the upper lobe and 6th segment of the right lung and 4-5th segments of the left lung. Prior to SCV-07 therapy, symptoms of bacterial intoxication, dyspnea and rales above the damaged lobes were present. […] Large foci of lung destruction surrounded by perifocal inflammation were found in the lingual lobe of the left lung. […] During immunological response assays, a decrease of CD4+ and CD8+ subsets and low lymphocyte blasttransformation responses with PHA and PPD were detected.
After two months of traditional therapy a small improvement in the patient's condition was seen; however, the reoentgenological picture was without significant change and immune responses remained inhibited.
SCV-07 was injected intramuscularly at 0.1 mg, once per day, for 5 days with continued traditional antituberculosis therapy (isoniazid at 600 mg/day intravenously, pyrazinamid at 1500 mg/day per so, rifampicin at 450 mg/day per os, kanamycin at 1000 mg/day intramuscularly). The clinical improvement was significant. Sputum culture tests became negative, cavities closed and infiltrative foci resolved. […] A normal range is approximately 26-40%. […] Finally, the blasttransformation response with PHA increased from 29% to 40%. A normal level is approximately 50%.

IL-2 = IL-2 production by Con A stimulated spleen cells (CTLL-2 assay); type: in vivo, mice
Method: as §1
In order to determine the IL-2 concentration in cell culture supernatants, the CTLL-2 IL-2 dependent cell line was used. CTLL-IL-2 cells were washed twice in RPMI-1640 and counted with a Goriaev hemocytometer. Supernatants were diluted in 96-well culture plates at dilutions of 1:5, 1:15, 1:45 and 1:135 in a volume of 100 il. IL-2 standard dilutions were also prepared. Cells were diluted to 2×10^5/ml in RPMI-1640 with 10% inactivated fetal calf serum, 2 mM L-glutamine, 80 ìg/ml gentamycin. The 100 ìl suspension was added to each well of the culture plate and incubated for 48 h at 37° C. in 5% CO2 humidity. Ten ìl of 5 i Ci/ml ^3H-thymidine was added to each well 16 h before the end of incubation. Following incubation, the cells were harvested on filters through the use of a semi-automated harvester and samples were counted in a liquid scintillation counter.

blood leukocytes = type: in vivo, mice
[3] = SCV-07 im 0.1 mg once per day for 5 days with continued traditional therapy
[4] = 17 days after SCV-07 therapy, Groups 8 and 9 (0.01 ìg/kg ip and 1 ìg/kg po)

## N[C@H](CCC(=O)N[C@@H](Cc1c[nH]c2ccccc12)C(=O)O)C(=O)O [SCV-07, γ-D-glutamyl-L-tryptophan]
IL-4 and IFN-γ; 4 days after therapy, versus isoniazid control mice (Group 3)
  basal IFN-γ production: failed to differ
IL-4 and IFN-γ; 10 days after therapy, Groups 4, 5, 6 and 8
  Con A stimulated INF-γ production: stimulation
IL-4 and IFN-γ; 10 days after therapy, Groups 5, 6 and 7
  Con A stimulated IL-4 production: significantly decreased
IL-4 and IFN-γ; 17 days after therapy, all mice
  basal IFN-γ production: increase
IL-4 and IFN-γ; end of the experiment, only Group 6 (1 ìg/kg ip, 10 injections)
  basal INF-γ production: maintenance of this increase
IL-4 and IFN-γ; mouse, in vivo
  basal IL-4 production: No significant changes
IL-4 and IFN-γ; ten days after therapy, Groups 5, 6 and 7
  basal IFN-γ production: significant elevation
Tuberculosis [1]; SCV-07 treated patients
  IL-2 production after stimulation with the mitogens PHA and PPD: greatly increased
Tuberculosis [1]; after 3 months of observation, 13.3% in the control group
  Cavity closure, patients: 25%
Tuberculosis [1]; after 3 months, 33.3% in the control group
  Negative sputum culture tests, patients: 65%
Tuberculosis [1]; after a month of observation, 13.3% in the control group
  Negative sputum culture tests, patients: 30%
Tuberculosis [1]; during SCV-07 therapy
  Serum bilirubin, creatinine, urea, alanine and asparagine transaminase: stabilized
Tuberculosis [1]; experimental group
  Hematological signs of tuberculosis activity including white blood cell counts and ESR: mostly diminished
  body temperature: decreased in all cases
Tuberculosis [1]; experimental group (20 patients)
  Moist rates resolved: 16 patients
Tuberculosis [1]; experimental group compared with control group
  T-cell blasttransformation responses (PHA, PPD): markedly increased
Tuberculosis [1]; following two months of SCV-07 therapy
  chest X-ray and tomogram: resolution of the infiltrate-like shadow
Tuberculosis [1]; immediately after SCV-07 therapy
  CD4+/CD8+ ratio: increased
Tuberculosis [1]; in one month
  Serum biochemical inflammation markers such as fibrinogen, β-lipoprotein, CRP: decreased
Tuberculosis [1]; out of 14 patients, immediately after SCV-07 therapy
  Elevation of CD3+ and CD4+ cell levels, patients: 7 patients
Tuberculosis [1]; within a month, experimental group (20 patients), with antituberculosis therapy
  Toxemia symptoms substantially resolved: half of the patients
Tuberculosis [2]; [3]
  Immunological responses: close to normal
  Sputum culture tests: negative
  cavities: closed
  infiltrative foci: resolved
Tuberculosis [2]; SCV-07 intramuscularly 0.1 mg once per day for 5 days with continued traditional therapy
  clinical improvement: significant
Tuberculosis [2]; post SCV-07, increased from 1.011×10^9/l
  CD3+ lymphocytes: 1.441e+09 L⁻¹
Tuberculosis [2]; post SCV-07, increased from 12%, normal range approximately 26-40%
  CD8+ numbers: 21%
Tuberculosis [2]; post SCV-07, increased from 29%, normal level approximately 50%
  blasttransformation response with PHA: 40%
Tuberculosis [2]; post SCV-07 treatment
  Lymphocyte functional abilities: markedly elevated
IL-2; 4 days after therapy, Group 7 (0.1 ìg/kg ip) compared to Group 3 (isoniazid control), Con A stimulated spleen cells
  IL-2 production: 41.6±5.6 U/ml
IL-2; 24 days after therapy, Group 6 (1 ìg/kg ip, 10 injections) and Group 7 (0.1 ìg/kg ip)
  IL-2 level: did not differ from uninfected mice
IL-2; all treated groups, all time points after therapy
  IL-2 production: increase
Blood leukocytes; 4 days after therapy
  Significant changes in blood lymphocytes and neutrophilic granulocytes: not observed
Blood leukocytes; 10 days after therapy, Groups 6, 7, 8 and 9 compared with Group 3, the isoniazid control
  monocyte levels: decrease
Blood leukocytes; [4]
  lymphocyte numbers: increase
  percent of neutrophils: significant decrease
